In patent US12150935B1, “3-(3-(1,3-dioxoisoindolin-2-yl) propyl)-5-(4-fluorobenzylidene) thiazolidine-2,4-dione as a potential antitumor and apoptotic inducer” (IMAM MOHAMMAD IBN SAUD ISLAMIC UNIVERSITY, priority 2024, dated 2024):

Experiments:
[1] = test system: human oral epithelial normal cell line (OEC); experiment: Growth inhibition of normal cells, OEC; format: cell-based; settings: 100 μg/mL, in vitro, read-out: growth inhibition percentage
Protocol: (§1) The compound of Formula I was tested for its antitumor activity against various cancer cell lines, in vitro, in non-small cell lung cancer (A549), colorectal carcinoma (HCT116), prostate cancer (PC3), pharynx squamous carcinoma (FaDu), triple-negative breast cancer (MDA-MB-468), cervical cancer (HeLa), and human oral epithelial normal cell line (OEC).

[2] = test system: triple-negative breast cancer (MDA-MB-468); experiment: Growth inhibition of cancerous cells, MDA-MB-468; format: cell-based; settings: Homo sapiens, concentration of 100 μg/mL, in vitro, read-out: growth inhibition percentage
Protocol: as §1

[3] = test system: colorectal carcinoma (HCT116); experiment: Growth inhibition of cancerous cells, HCT116; format: cell-based; settings: Homo sapiens, HCT-116, concentration of 100 μg/mL, in vitro, read-out: growth inhibition percentage
Protocol: as §1

cervical cancer (HeLa) = experiment: Growth inhibition of cancerous cells, HeLa; format: cell-based; settings: Homo sapiens, concentration of 100 μg/mL, in vitro, read-out: growth inhibition percentage
Protocol: as §1

[4] = test system: pharynx squamous carcinoma (FaDu); experiment: Growth inhibition of cancerous cells, FaDu; format: cell-based; settings: Homo sapiens, concentration of 100 μg/mL, in vitro, read-out: growth inhibition percentage
Protocol: as §1

prostate cancer (PC3) = experiment: Growth inhibition of cancerous cells, PC3; format: cell-based; settings: Homo sapiens, concentration of 100 μg/mL, in vitro, read-out: growth inhibition percentage
Protocol: as §1

[5] = test system: human non-small cell lung cancer (A549); experiment: Growth inhibition of cancerous cells, A549; format: cell-based; settings: concentration of 100 μg/mL, in vitro, read-out: growth inhibition percentage
Protocol: as §1

| SMILES | inhibition at 100 µg/mL [1] [%] | melting point [°C] | inhibition at 100 µg/mL [2] [%] | inhibition at 100 µg/mL [3] [%] | inhibition at 100 µg/mL (cervical cancer (HeLa)) [%] | inhibition at 100 µg/mL [4] [%] | inhibition at 100 µg/mL (prostate cancer (PC3)) [%] | inhibition at 100 µg/mL [5] [%] |
| --- | --- | --- | --- | --- | --- | --- | --- | --- |
| COc1cccc2c1C(=O)c1c(O)c3c(c(O)c1C2=O)C[C@@](O)(C(=O)CO)C[C@@H]3O[C@H]1C[C@H](N)[C@H](O)[C@H](C)O1 [doxorubicin, reference compound] | 57.9 | – | – | – | – | – | – | – |
| O=C1S/C(=C/c2ccc(F)cc2)C(=O)N1CCCN1C(=O)c2ccccc2C1=O [Formula I, 3-(3-(1,3-Dioxoisoindolin-2-yl)propyl)-5-(4-fluorobenzylidene) thiazolidine-2,4-dione] | 61.2 | 233 to 234 | 87.8 | 79.3 | 73.1 | 86.8 | 84.3 | 79.1 |
